Results: ChEMBL document CHEMBL1151095, “Anti-human immunodeficiency virus type-1 (HIV-1) and anti-hepatitis B virus (HBV) activities of (2,3-dideoxy-2-fluoro--L-threo-pentofuranosyl)nucleosides” (Bioorg Med Chem Lett, 1995)

Columns and labels:
[1] = In vitro anti-HIV activity was evaluated in human peripheral blood mononuclear (PBM) cells; format: functional
[2] = Cytotoxicity in human peripheral blood mononuclear (PBM) cells; format: functional, cell-based
Homo sapiens [3] = species on record: Homo sapiens; experiment: Cytotoxicity in 2.2.15 cells; format: functional, cell-based; settings: HepG2 2.2.15
CCRF-CEM = experiment: Cytotoxicity in CEM cells; format: functional, cell-based; settings: Homo sapiens
Homo sapiens [4] = species on record: Homo sapiens; experiment: In vitro anti-HBV activity in 2.2.15 cells; format: functional, cell-based; settings: HepG2 2.2.15
Vero = experiment: Cytotoxicity in Vero cells; format: functional, cell-based; settings: Chlorocebus sabaeus

Row | EC50 [1] [µM] | EC50 (Homo sapiens [4]) [µM] | Structure (SMILES) | IC50 [2] [µM] | IC50 (Homo sapiens [3]) [µM] | IC50 (CCRF-CEM) [µM] | IC50 (Vero) [µM]
1 | 16.2 | 4 | Nc1ccn([C@@H]2O[C@H](CO)C[C@@H]2F)c(=O)n1 | > 100 | > 200 | > 100 | > 100
2 | 100 | > 10 | Nc1ncnc2c1ncn2[C@@H]1O[C@H](CO)C[C@@H]1F [LODENOSINE] | > 100 | > 200 | > 100 | > 100

Row | Structure (SMILES) | EC50 [1] [µM] | EC50 (Homo sapiens [4]) [µM] | IC50 [2] [µM] | IC50 (Homo sapiens [3]) [µM] | IC50 (CCRF-CEM) [µM] | IC50 (Vero) [µM]
3 | Cc1cn([C@H]2C[C@H](N=[N+]=[N-])[C@@H](CO)O2)c(=O)[nH]c1=O [ZIDOVUDINE] | 0.004 |  | > 100 |  |  | 
